Source: patent EP0513849B1, “Method of preparing transgenic Zea mays plants regenerated from protoplasts or protoplast-derived cells” (Novartis AG, priority 1987, dated 1988)

Experiments:
Zea mays protoplasts [1] = assay: Colony formation from Zea mays protoplasts with DMSO and O-acetyl-salicylic acid in the presence of 2,4-D (Example 20); type: cell-based; conditions: for number of formed colonies: no additions, 0.75 million protoplasts per ml, counted after 3 weeks
Experimental: (§1) The plates containing the protoplasts in agarose are placed in the dark at 26 °C. Within 14 days, cell colonies arise from the protoplasts. The agarose containing the colonies is transferred to the surface of a 9 cm diameter petri dish containing 30 ml of N6 medium with 2 mg/liter 2,4-D, solidified with 0.24% w/v Gelrite^R (2N6). The colonies are cultured to give callus. The callus is cultured further in the dark at 26 °C and callus pieces subcultured every 2 weeks onto fresh N6 medium containing 2 mg/liter 2,4-D (solidified with 0.24% w/v Gelrite^R).
Protoplasts are resuspended in the last step of example 3 in 6/7 strength KMC solution at 7.5 million per ml. The O-acetyl-salicylic acid is dissolved at 2.5 mg/ml in KM medium. The solution is filter sterilized. The O-acetyl-salicylic acid is then added to the culture medium immediately before use. Aliquots of protoplast suspension are placed in 6 cm diameter petri dishes at room temperature. 3 ml of KM medium containing 1.2% w/v SeaPlaque^R agarose, 2,4-D and O-acetyl salicylic acid is added so as to give the correct 2,4-D and O-acetyl-salicylic acid concentrations and a protoplast density of 0.5 million per ml. The agarose and protoplasts are mixed well, and the medium allowed to gel.
The protoplasts are prepared and plated at 0.75 million per ml as described in example 18, using 1 ml of medium per 3.5 cm diameter petri dish. O-acetyl-salicylic acid is included in the medium. The O-acetyl-salicylic acid is dissolved in DMSO and then added to the medium before plating of the protoplasts. To obtain a solution in DMSO, 1 g of O-acetyl-salicylic acid is dissolved in 10 ml DMSO, and added to 90 ml distilled water. The solution is then filter sterilized before use.
The dishes are cultured as described in example 10. After a period of 3 weeks, macroscopic colonies arising in the dishes are counted. […]

Zea mays protoplasts [2] = assay: Colony formation from cultured Zea mays protoplasts in the presence of plant growth regulators (auxins) (Example 21); type: cell-based; conditions: 0.54 million protoplasts per ml, counted after 3 weeks
Experimental: as §1
Protoplasts are resuspended in the last step of example 3 in 6/7 strength KMC solution at 5 million per ml.
Aliquots of protoplast suspension are placed in 6cm diameter petri dishes at room temperature. 2 ml of KM medium containing 1.2% w/v SeaPlaque^R agarose, and 2,4-D, Picloram, Dicamba or para-Chlorophenoxyacetic acid (pCPA) to give the correct plant growth regulator concentrations is added. The final protoplast density used is 0.54 million per ml. The agarose and protoplasts are mixed well, and the medium allowed to gel.
The dishes are cultured as described in example 10. After a period of 3 weeks, macroscopic colonies arising in the dishes are counted.

[3] = plant growth regulator concentration 0.1 mg/liter
[4] = plant growth regulator concentration 1 mg/liter
[5] = plant growth regulator concentration 10 mg/liter

Row | SMILES | number of formed colonies (Zea mays protoplasts [1]; 2,4-D 0.1 mg/liter) | number of formed colonies (Zea mays protoplasts [1]; 2,4-D 0.3 mg/liter) | number of formed colonies (Zea mays protoplasts [1]; 2,4-D 1.0 mg/liter) | number of colonies formed (Zea mays protoplasts [2]; [3]) | number of colonies formed (Zea mays protoplasts [2]; [4]) | number of colonies formed (Zea mays protoplasts [2]; [5]) | colony forming efficiency (Zea mays protoplasts [1]; DMSO alone, 1% v/v) | effect on the stimulatory activity of O-acetyl-salicylic acid (Zea mays protoplasts [1]; O-acetyl-salicylic acid dissolved in DMSO)
1 | O=C(O)COc1ccc(Cl)cc1Cl [2,4-D, 2,4-dichlorophenoxyacetic acid] | 1 | 2 | 45 | 140 | 0 | 0 |  | 
2 | COc1c(Cl)ccc(Cl)c1C(=O)O [dicamba, 3,6-dichloro-2-methoxy benzoic acid] |  |  |  | 62 | 288 | 0 |  | 
3 | O=C(O)COc1ccc(Cl)cc1 [pCPA, para-chlorophenoxyacetic acid] |  |  |  | 52 | 0 | 0 |  | 
4 | C[S+](C)[O-] [DMSO] |  |  |  |  |  |  | no significant increase or decrease | potentiates the stimulatory activity of the O-acetyl-salicylic acid
